Measurements reported in patent US9309242B2, “Substituted pyrido[2,3-b]pyrazines as FGFR kinase inhibitors” (priority 2011, dated 2016).
pIC50: −log10 of the molar value. Structures can show the parent of a compound that is named as a salt. Where two headings read alike, the source gives them in different places.

What was measured:
FGFR1 (h) = FGFR1 (h) (Homo sapiens, UniProt P11362); test: FGFR1 (enzymatic assay), TR-FRET; assay type: biochemical; conditions: read-out: FGFR 1 pIC50 (converted)
Sequence of FGFR1 (h) (P11362 22-822): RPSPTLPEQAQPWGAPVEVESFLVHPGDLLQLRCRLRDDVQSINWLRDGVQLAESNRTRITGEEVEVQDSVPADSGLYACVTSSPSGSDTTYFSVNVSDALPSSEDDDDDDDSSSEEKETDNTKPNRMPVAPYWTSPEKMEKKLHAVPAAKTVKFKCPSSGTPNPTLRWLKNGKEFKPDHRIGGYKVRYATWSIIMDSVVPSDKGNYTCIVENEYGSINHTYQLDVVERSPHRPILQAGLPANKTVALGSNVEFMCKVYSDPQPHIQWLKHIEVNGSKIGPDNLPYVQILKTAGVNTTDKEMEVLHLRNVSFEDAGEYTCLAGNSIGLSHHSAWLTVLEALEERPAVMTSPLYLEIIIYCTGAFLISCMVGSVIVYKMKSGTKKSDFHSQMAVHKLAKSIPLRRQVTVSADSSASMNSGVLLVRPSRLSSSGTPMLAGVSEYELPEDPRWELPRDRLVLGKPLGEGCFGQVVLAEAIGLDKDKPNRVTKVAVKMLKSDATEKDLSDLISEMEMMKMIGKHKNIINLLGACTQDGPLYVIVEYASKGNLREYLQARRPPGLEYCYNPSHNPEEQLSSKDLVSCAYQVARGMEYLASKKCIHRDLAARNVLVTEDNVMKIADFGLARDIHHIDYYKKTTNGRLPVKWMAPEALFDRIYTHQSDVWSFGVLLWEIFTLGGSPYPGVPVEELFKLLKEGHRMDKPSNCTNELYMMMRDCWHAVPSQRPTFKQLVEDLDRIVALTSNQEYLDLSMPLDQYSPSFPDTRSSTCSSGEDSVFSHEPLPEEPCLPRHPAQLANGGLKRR

FGFR2 (h) = FGFR2 (h) (Homo sapiens, UniProt P21802); test: FGFR2 (enzymatic assay), TR-FRET; assay type: biochemical; conditions: enzymatic assay, read-out: FGFR 2 pIC50 (converted)
Sequence of FGFR2 (h) (P21802 22-821): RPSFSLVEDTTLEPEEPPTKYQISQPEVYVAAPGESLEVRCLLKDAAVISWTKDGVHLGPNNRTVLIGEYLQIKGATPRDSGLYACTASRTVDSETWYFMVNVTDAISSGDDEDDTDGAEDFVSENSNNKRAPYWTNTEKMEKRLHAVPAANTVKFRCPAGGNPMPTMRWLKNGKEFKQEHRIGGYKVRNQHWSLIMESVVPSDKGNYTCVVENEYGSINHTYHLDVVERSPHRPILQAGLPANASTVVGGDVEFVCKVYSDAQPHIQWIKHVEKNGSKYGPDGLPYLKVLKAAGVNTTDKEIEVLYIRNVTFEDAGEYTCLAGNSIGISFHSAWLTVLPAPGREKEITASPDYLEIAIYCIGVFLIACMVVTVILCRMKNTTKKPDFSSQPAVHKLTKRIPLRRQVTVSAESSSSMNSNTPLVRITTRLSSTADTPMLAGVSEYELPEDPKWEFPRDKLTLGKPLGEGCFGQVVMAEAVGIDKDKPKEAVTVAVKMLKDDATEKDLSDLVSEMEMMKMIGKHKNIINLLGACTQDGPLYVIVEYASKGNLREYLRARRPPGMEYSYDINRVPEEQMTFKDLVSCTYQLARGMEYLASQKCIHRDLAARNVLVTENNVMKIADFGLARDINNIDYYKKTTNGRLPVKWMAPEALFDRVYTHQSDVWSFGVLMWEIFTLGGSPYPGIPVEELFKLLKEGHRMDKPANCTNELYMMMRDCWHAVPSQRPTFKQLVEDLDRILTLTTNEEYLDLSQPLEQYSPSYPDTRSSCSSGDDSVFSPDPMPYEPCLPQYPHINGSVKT
Procedure, shortened: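 At low ATP (0.4 μM), enzyme activity of human FGFR2 (150 ng/ml) toward biotinylated Flt3 substrate (500 nM) was followed with test compound present. Reactions ran in 50 mM HEPES pH 7.5, 6 mM MnCl2, 1 mM DTT, 0.1 mM Na3VO4, 0.01% Triton-X-100, 1% DMSO.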

FGFR3 (h) = FGFR3 (h) (Homo sapiens, UniProt P22607); test: FGFR3 (enzymatic assay), TR-FRET; assay type: biochemical; conditions: read-out: FGFR 3 pIC50 (converted)
Sequence of FGFR3 (h) (P22607 23-806): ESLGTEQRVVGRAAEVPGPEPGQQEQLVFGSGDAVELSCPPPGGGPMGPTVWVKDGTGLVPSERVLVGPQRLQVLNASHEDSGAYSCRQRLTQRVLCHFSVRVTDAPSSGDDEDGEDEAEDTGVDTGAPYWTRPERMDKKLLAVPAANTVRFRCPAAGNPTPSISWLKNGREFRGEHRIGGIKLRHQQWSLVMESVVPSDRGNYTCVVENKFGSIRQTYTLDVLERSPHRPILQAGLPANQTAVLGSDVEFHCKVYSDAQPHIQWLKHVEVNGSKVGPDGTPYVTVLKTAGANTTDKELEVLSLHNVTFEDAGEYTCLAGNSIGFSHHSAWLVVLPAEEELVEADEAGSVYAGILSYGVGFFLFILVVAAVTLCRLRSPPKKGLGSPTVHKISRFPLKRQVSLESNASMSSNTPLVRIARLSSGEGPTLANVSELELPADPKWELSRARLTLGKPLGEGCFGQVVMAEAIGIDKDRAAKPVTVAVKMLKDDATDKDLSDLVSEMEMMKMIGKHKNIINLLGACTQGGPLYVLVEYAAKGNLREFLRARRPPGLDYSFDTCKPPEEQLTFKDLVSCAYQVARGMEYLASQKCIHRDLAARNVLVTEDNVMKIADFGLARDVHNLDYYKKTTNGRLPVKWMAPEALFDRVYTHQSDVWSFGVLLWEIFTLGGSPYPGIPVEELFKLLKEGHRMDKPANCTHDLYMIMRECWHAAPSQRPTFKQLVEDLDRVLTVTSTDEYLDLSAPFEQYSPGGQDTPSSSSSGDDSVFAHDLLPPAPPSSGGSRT
Source text: Time-Resolved Fluorescence Resonance Energy Transfer (TR-FRET) signal (ex340 nm.

FGFR4 (h) = FGFR4 (h) (Homo sapiens, UniProt P22455); test: FGFR4 (enzymatic assay), TR-FRET; assay type: biochemical; conditions: FGFR 4 pIC50, enzymatic assay
Sequence of FGFR4 (h) (P22455 22-802): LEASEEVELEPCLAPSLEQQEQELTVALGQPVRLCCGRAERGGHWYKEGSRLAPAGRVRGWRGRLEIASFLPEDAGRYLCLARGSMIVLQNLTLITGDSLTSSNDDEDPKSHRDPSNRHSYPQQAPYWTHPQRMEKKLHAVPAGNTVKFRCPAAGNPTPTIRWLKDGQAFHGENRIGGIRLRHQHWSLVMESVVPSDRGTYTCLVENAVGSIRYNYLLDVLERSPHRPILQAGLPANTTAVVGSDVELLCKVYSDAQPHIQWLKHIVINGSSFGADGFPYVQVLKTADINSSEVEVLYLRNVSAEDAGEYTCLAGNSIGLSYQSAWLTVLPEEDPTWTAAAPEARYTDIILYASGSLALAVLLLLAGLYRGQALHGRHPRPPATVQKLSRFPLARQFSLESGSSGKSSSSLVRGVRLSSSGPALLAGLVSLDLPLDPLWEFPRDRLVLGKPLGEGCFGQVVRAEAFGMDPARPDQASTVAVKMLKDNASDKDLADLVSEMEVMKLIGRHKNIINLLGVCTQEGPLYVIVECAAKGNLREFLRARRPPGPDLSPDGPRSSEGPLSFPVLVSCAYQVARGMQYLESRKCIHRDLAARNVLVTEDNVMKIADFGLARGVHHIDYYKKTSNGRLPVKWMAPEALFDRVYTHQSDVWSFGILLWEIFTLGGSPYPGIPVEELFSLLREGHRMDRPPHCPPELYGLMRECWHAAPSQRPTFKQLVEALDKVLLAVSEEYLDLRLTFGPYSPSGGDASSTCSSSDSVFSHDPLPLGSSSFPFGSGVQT

KDR (h) = KDR (h) (Homo sapiens, UniProt P35968); test: KDR (VEGFR2) (enzymatic assay), TR-FRET; assay type: biochemical; conditions: read-out: VEGFR 2 (KDR) pIC50 (converted)
Procedure, shortened: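 TR-FRET readout (ex 340, em 620/655 nm) in RFU after EDTA stop with Eu-anti-phosphotyrosine and SA-XL665 for 60 min. The preceding 120-min room-temperature kinase step used 150 ng/ml KDR (h), 3 μM ATP, 500 nM biotinylated Flt3 peptide, MnCl2-containing HEPES buffer pH 7.5, 1% DMSO.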

[1] = biological target: T1, Ba/F3-FGFR1-transfected cells (Homo sapiens, UniProt P11362); test: Ba/F3-FGFR1 (minus IL3) cellular proliferation assay, Alamar Blue; assay type: cell-based
T1 construct: BAF3-FGFR1 (MIN IL3) pIC50; other: minus IL3
T1 sequence (P11362 whole entry, change not shown): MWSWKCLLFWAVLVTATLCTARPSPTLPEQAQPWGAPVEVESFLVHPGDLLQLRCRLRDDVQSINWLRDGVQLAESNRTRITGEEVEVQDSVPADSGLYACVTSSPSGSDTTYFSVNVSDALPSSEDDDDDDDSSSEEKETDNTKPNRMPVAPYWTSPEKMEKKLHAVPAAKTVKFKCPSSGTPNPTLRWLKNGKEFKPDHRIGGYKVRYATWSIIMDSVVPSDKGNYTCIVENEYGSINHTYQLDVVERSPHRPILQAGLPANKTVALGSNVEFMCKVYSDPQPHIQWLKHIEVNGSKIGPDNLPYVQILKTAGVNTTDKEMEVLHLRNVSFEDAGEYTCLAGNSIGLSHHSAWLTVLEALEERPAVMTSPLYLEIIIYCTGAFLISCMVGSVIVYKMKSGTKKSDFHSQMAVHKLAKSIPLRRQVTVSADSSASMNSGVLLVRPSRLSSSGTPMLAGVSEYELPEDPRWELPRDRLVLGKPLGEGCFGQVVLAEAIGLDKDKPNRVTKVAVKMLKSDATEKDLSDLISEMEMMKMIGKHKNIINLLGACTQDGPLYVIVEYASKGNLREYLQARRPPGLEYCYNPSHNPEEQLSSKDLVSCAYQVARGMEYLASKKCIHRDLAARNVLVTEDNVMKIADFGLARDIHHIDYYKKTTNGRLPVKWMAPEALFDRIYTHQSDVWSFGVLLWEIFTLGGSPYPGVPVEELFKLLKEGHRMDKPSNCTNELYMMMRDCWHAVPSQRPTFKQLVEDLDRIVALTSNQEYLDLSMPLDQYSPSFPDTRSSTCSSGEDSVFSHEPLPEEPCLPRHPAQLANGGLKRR
Procedure, shortened: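 Ba/F3 cells transfected with FGFR1 (20000 cells/well) were plated onto compound in phenol red-free RPMI-1640 with 10% FBS, 2 mM L-glutamine and gentamycin, then kept 24 h at 37 °C, 5% CO2. Alamar Blue (resazurin) was added for 4 h and fluorescence read at ex 540/em 590 nm.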

[2] = test system: Ba/F3-FGFR1-transfected cells; test: Ba/F3-FGFR1 (plus IL3) cellular proliferation assay, counterscreen with 10 ng/ml murine IL3; assay type: cell-based; conditions: for BAF3-FGFR1 (PLUS IL3) pIC50: plus IL3 (10 ng/ml murine IL3, counterscreen)
Procedure, shortened: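 Proliferation read-out: resazurin-based Alamar Blue fluorescence (540/590 nm) after 4 h, following 24 h compound treatment of 20000 Ba/F3-FGFR1 cells per well in 10% FBS RPMI at 37° C. IL3 counterscreen used the same protocol plus 10 ng/ml murine IL3.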

[3] = biological target: T2, Ba/F3-FGFR3-transfected cells (Homo sapiens, UniProt P22607); test: Ba/F3-FGFR3 (minus IL3) cellular proliferation assay, Alamar Blue; assay type: cell-based
T2 construct: BAF3-FGFR3 (MIN IL3) pIC50; other: minus IL3
T2 sequence (P22607 whole entry, change not shown): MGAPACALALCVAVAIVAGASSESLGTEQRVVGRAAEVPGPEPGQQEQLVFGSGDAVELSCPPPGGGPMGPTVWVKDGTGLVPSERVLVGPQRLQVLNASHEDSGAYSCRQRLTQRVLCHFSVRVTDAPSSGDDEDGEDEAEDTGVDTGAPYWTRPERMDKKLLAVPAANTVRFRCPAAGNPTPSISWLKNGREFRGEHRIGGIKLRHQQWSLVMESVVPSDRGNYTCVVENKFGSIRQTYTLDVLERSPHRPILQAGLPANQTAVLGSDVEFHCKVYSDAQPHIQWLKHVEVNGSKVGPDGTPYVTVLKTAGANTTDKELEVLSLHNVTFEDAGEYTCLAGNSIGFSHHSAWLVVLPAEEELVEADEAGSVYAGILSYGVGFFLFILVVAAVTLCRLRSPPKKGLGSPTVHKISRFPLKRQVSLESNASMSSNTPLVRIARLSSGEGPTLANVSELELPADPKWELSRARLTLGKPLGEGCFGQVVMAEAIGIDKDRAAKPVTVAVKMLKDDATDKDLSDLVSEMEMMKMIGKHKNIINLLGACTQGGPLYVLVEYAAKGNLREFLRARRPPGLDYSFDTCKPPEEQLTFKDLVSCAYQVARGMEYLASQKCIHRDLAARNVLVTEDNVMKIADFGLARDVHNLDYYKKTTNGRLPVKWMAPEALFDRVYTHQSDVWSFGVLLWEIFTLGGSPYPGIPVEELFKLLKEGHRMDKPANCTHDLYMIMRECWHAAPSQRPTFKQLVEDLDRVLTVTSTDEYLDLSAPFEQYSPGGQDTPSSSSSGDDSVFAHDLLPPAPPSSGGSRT
Procedure, shortened: (§1)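 Ba/F3 cells transfected with FGFR3 were seeded at 20000 cells/well in phenol red-free RPMI-1640 with 10% FBS over compound in DMSO and kept 24 hours at 37° C, 5% CO2. Alamar Blue (resazurin) was then added for 4 hours and fluorescence read at ex 540/em 590 nm. The counterscreen repeated this with 10 ng/ml murine IL3.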

[4] = test system: Ba/F3-FGFR3-transfected cells; test: Ba/F3-FGFR3 (plus IL3) cellular proliferation assay, counterscreen with 10 ng/ml murine IL3; assay type: cell-based; conditions: for BAF3-FGFR3 (PLUS IL3) pIC50: plus IL3 (10 ng/ml murine IL3, counterscreen)
Procedure, shortened: as §1

[5] = biological target: T3, Ba/F3-KDR-transfected cells (Homo sapiens, UniProt P35968); test: Ba/F3-KDR (minus IL3) cellular proliferation assay, Alamar Blue; assay type: cell-based
T3 construct: BAF3-KDR (MIN IL3) pIC50; other: minus IL3
Procedure, shortened: (§2)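 Proliferation read-out by Alamar Blue fluorescence (ex. 540 nm, em. 590 nm) after 4 hours, following 24 hours of compound treatment at 37° C of 20000 Ba/F3-KDR cells per well in RPMI-1640/10% FBS. Same protocol with 10 ng/ml murine IL3 serves as counterscreen.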

[6] = test system: Ba/F3-KDR-transfected cells; test: Ba/F3-KDR (plus IL3) cellular proliferation assay, counterscreen with 10 ng/ml murine IL3; assay type: cell-based; conditions: for BAF3-KDR (PLUS IL3) pIC50: plus IL3 (10 ng/ml murine IL3, counterscreen)
Procedure, shortened: as §2

[7] = biological target: Ba/F3-FGFR4-transfected cells (Homo sapiens, UniProt P22455); test: Ba/F3-FGFR4 cellular proliferation assay, Alamar Blue; assay type: cell-based
Procedure, shortened: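 Proliferation is measured by resazurin reduction: after 24 h compound treatment at 37 °C in RPMI-1640/10% FBS, cells get Alamar Blue for 4 h before RFU read (540/590 nm). Each well holds 20000 Ba/F3-FGFR4-transfected cells.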

[8] = average values if tested multiple times

## COc1cc(OC)cc(N(Cc2ncc[nH]2)c2ccc3ncc(-c4cnn(C)c4)nc3n2)c1 (as salt: phosphate) [Compound 24]
other
  melting point: 253 °C

## COc1cc(OC)cc(N(Cc2ncc[nH]2)c2ccc3ncc(-c4cnn(C)c4)nc3n2)c1 (as salt: tartrate) [Compound 24]
other
  melting point: 176 °C

## COc1cc(OC)cc(N(Cc2ncc[nH]2)c2ccc3ncc(-c4cnn(C)c4)nc3n2)c1 (as salt: hydrochloride) (hydrate or solvate) [Compound 24]
other
  melting point: > 260 °C

## CNCCN(c1ccc2ncc(-c3cn[nH]c3)nc2n1)c1c(F)c(OC)cc(OC)c1F (as salt: HCl) (hydrate or solvate) [Compound 106]
other
  melting point: 250 °C

## CNCCN(c1ccc2ncc(-c3cnn(C)c3)nc2n1)c1c(F)c(OC)cc(OC)c1F (hydrate or solvate) [Compound 3]
other
  melting point: 134 °C

## COc1cc(OC)cc(N(Cc2ncc[nH]2)c2ccc3ncc(-c4cnn(C)c4)nc3n2)c1 (as salt: fumarate) [Compound 24]
other
  melting point: 222 °C

## COc1cc(OC)cc(N(Cc2ncc[nH]2)c2ccc3ncc(-c4cnn(C)c4)nc3n2)c1 (as salt: sulphate) [Compound 24]
other
  melting point: 266 °C

## COc1cc(/N=c2\ccc3ncc(-c4cnn(C)c4)nc3n2Cc2cc[nH]n2)c(F)c(OC)c1 (as salt: HCl) (hydrate or solvate) [Compound 115]
other
  melting point: 130 °C

## COc1cc(OC)c(F)c(N(Cc2ncn(C3CNC3)n2)c2ccc3ncc(-c4cnn(C)c4)nc3n2)c1
other
  melting point: 126 °C

## COc1cc(OC)c(F)c(N(Cc2ncc[nH]2)c2ccc3ncc(-c4cnn(C)c4)nc3n2)c1 (as salt: sulfate) [Compound 23]
other
  melting point: 198 °C

## COc1cc(OC)c(F)c(N(CC(O)COC(C)C)c2ccc3ncc(-c4cnn(C)c4)nc3n2)c1F (stereo not drawn) [Compound 61]
FGFR1 (h); [8]
  IC50: 2.24 nM
FGFR2 (h); [8]
  IC50: 4.17 nM
FGFR3 (h); [8]
  IC50: 3.98 nM
FGFR4 (h); [8]
  pIC50: 8.39
KDR (h); [8]
  IC50: 16.6 nM
[1]
  BAF3-FGFR1 (MIN IL3) pIC50: 7.56
[2]
  BAF3-FGFR1 (PLUS IL3) pIC50: <5
[3]
  BAF3-FGFR3 (MIN IL3) pIC50: 7.87
[4]
  BAF3-FGFR3 (PLUS IL3) pIC50: <5
[5]
  BAF3-KDR (MIN IL3) pIC50: 6.29
[6]
  BAF3-KDR (PLUS IL3) pIC50: <5
[7]
  BAF3-FGFR4 pIC50: 7.56

## COc1cc(OC)c(F)c(N(Cc2ncc[nH]2)c2ccc3ncc(-c4cnn(C)c4)nc3n2)c1 [23-phosphate salt]
FGFR1 (h); [8]
  IC50: 0.468 nM
FGFR2 (h); [8]
  IC50: 1.91 nM
FGFR3 (h); [8]
  IC50: 1.1 nM
FGFR4 (h); [8]
  pIC50: 9.01
KDR (h); [8]
  IC50: 7.94 nM
[1]
  BAF3-FGFR1 (MIN IL3) pIC50: 8.83
[2]
  BAF3-FGFR1 (PLUS IL3) pIC50: <5
[3]
  BAF3-FGFR3 (MIN IL3) pIC50: ~8.64
[4]
  BAF3-FGFR3 (PLUS IL3) pIC50: <5
[5]
  BAF3-KDR (MIN IL3) pIC50: 7.03
[6]
  BAF3-KDR (PLUS IL3) pIC50: <5
[7]
  BAF3-FGFR4 pIC50: 8.15

## COc1cc(OC)c(F)c(N(Cc2ncc[nH]2)c2ccc3ncc(-c4cnn(C)c4)nc3n2)c1 (as salt: fumarate) [Compound 23]
other
  melting point: 186 °C

## COc1cc(OC)c(F)c(N(Cc2ncc[nH]2)c2ccc3ncc(-c4cnn(C)c4)nc3n2)c1 (as salt: phosphate) [Compound 23]
other
  melting point: 175 °C

## COc1cc(/N=c2\ccc3ncc(-c4cnn(C)c4)nc3n2CC2CCCCO2)cc(OC)c1 (stereo not drawn)
other
  melting point: 210 °C

## COc1cc(OC)c(F)c(N(CC2CCOC2)c2ccc3ncc(-c4cnn(C)c4)nc3n2)c1 (single isomer, unassigned) [Compound 171]
FGFR1 (h)
  IC50: 3.55 nM
FGFR2 (h)
  IC50: 2.57 nM
FGFR3 (h)
  IC50: 1.55 nM
FGFR4 (h)
  pIC50: 8.43
KDR (h)
  IC50: ~14.5 nM
[1]
  BAF3-FGFR1 (MIN IL3) pIC50: 7.10
[2]
  BAF3-FGFR1 (PLUS IL3) pIC50: <5
[3]
  BAF3-FGFR3 (MIN IL3) pIC50: 7.28
[4]
  BAF3-FGFR3 (PLUS IL3) pIC50: <5
[5]
  BAF3-KDR (MIN IL3) pIC50: 5.63
[6]
  BAF3-KDR (PLUS IL3) pIC50: <5
[7]
  BAF3-FGFR4 pIC50: 6.55

## COc1cc(OC)c(F)c(N(CC(O)COC(C)C)c2ccc3ncc(-c4cnn(C)c4)nc3n2)c1F (stereo not drawn) [Compound 62]
FGFR1 (h); [8]
  IC50: 4.07 nM
FGFR2 (h); [8]
  IC50: 7.76 nM
FGFR3 (h); [8]
  IC50: 5.5 nM
FGFR4 (h); [8]
  pIC50: 8.48
KDR (h); [8]
  IC50: 32.4 nM
[1]
  BAF3-FGFR1 (MIN IL3) pIC50: 8.06
[2]
  BAF3-FGFR1 (PLUS IL3) pIC50: <5
[3]
  BAF3-FGFR3 (MIN IL3) pIC50: 8.10
[4]
  BAF3-FGFR3 (PLUS IL3) pIC50: <5
[5]
  BAF3-KDR (MIN IL3) pIC50: 6.21
[6]
  BAF3-KDR (PLUS IL3) pIC50: <5
[7]
  BAF3-FGFR4 pIC50: 7.92

## COc1cc(OC)c(F)c(N(Cc2ncc[nH]2)c2ccc3ncc(-c4cnn(C)c4)nc3n2)c1 [23-hydrochloric acid salt]
FGFR1 (h); [8]
  IC50: 0.437 nM
FGFR2 (h); [8]
  IC50: 1.41 nM
FGFR3 (h); [8]
  IC50: 0.776 nM
FGFR4 (h); [8]
  pIC50: 9.07
KDR (h); [8]
  IC50: 6.76 nM
[1]
  BAF3-FGFR1 (MIN IL3) pIC50: 8.81
[2]
  BAF3-FGFR1 (PLUS IL3) pIC50: <5
[3]
  BAF3-FGFR3 (MIN IL3) pIC50: ~8.58
[4]
  BAF3-FGFR3 (PLUS IL3) pIC50: <5
[5]
  BAF3-KDR (MIN IL3) pIC50: 6.68
[6]
  BAF3-KDR (PLUS IL3) pIC50: <5
[7]
  BAF3-FGFR4 pIC50: 7.98

## COc1cc(OC)c(F)c(N(Cc2ncc[nH]2)c2ccc3ncc(-c4cnn(C)c4)nc3n2)c1 (as salt: hydrochloric acid salt) [Compound 23]
other
  melting point: 216 °C

## COc1cc(/N=c2\ccc3ncc(-c4cnn(C)c4)nc3n2CCN2CCCC2=O)cc(OC)c1 [Compound 150]
FGFR1 (h)
  IC50: 3.8 nM
FGFR2 (h)
  IC50: 2.51 nM
FGFR3 (h)
  IC50: 3.55 nM
FGFR4 (h)
  pIC50: 7.83
KDR (h)
  IC50: 30.9 nM
[1]
  BAF3-FGFR1 (MIN IL3) pIC50: 6.80
[2]; read-out: BAF3-FGFR1 (PLUS IL3) pIC50 (converted)
  IC50: > 10000 nM
[3]
  BAF3-FGFR3 (MIN IL3) pIC50: ~7.06
[4]; read-out: BAF3-FGFR3 (PLUS IL3) pIC50 (converted)
  IC50: > 10000 nM
[5]
  BAF3-KDR (MIN IL3) pIC50: 5.34
[6]; read-out: BAF3-KDR (PLUS IL3) pIC50 (converted)
  IC50: > 10000 nM
[7]
  BAF3-FGFR4 pIC50: 6.18

## COc1cc(OC)c(F)c(N(Cc2ncc[nH]2)c2ccc3ncc(-c4cnn(C)c4)nc3n2)c1 (as salt: lactate) [Compound 23]
other
  melting point: 118 °C
